Assay results as given in patent publication US20230233569A1 (Revolution Medicines, Inc., priority 2020, published 2023).
Like-named read-outs stand apart in the source and are kept apart here.

Legend:
Capan-1 (K-Ras G12V) = assay: CellTiter-Glo cell viability assay, 5-day treatment; assay type: cell-based; details: Homo sapiens, CAPAN-1, 120 h, 5-day treatment; read-out: Capan-1 Cell Viability assay data (K-Ras G12V, IC50)
Method in brief: (§1)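 Compounds were dispensed directly onto seeded cells and incubated for 5 days, then plates were equilibrated to room temperature for about 30 minutes before luminescence reading. Signals were expressed as percent of the mean DMSO control and fitted with a four-parameter logistic curve.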

NCI-H358 (K-Ras G12C) = assay: as above; assay type: cell-based; details: Homo sapiens, NCI-H358, 120 h, 5-day treatment; read-out: H358 Cell Viability assay data (K-Ras G12C, IC50)
Method in brief: as §1

KRAS G12C = KRAS G12C (Homo sapiens, UniProt P01116+P62937, G12C); assay: Disruption of BRAF RBD interaction with Ras (FRET / MOA assay, with Cyclophilin A); assay type: biochemical
Method in brief: (§2)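 IC50 values reflect loss of K-Ras binding to BRAF RBD, read as a lowered TR-FRET ratio compared with DMSO, driven by compound-mediated K-Ras:Cyclophilin A complex formation. Compound top dose 30 μM final, 3-fold steps, 3 h incubation at 25 °C before a 1.5 h antibody step.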

KRAS G12D = KRAS G12D (Homo sapiens, UniProt P01116+P62937, G12D); assay: as above; assay type: biochemical
Method in brief: as §2

KRAS G12S = KRAS G12S (Homo sapiens, UniProt P01116+P62937, G12S); assay: as above; assay type: biochemical
Method in brief: as §2

KRAS G12V = KRAS G12V (Homo sapiens, UniProt P01116+P62937, G12V); assay: as above; assay type: biochemical
Method in brief: as §2

KRAS G13C = KRAS G13C (Homo sapiens, UniProt P01116+P62937, G13C); assay: as above; assay type: biochemical
Method in brief: as §2

KRAS G13D = KRAS G13D (Homo sapiens, UniProt P01116+P62937, G13D); assay: as above; assay type: biochemical
Method in brief: as §2

KRAS WT = KRAS WT (Homo sapiens, UniProt P01116+P62937); assay: as above; assay type: biochemical
Method in brief: as §2

NRAS G12C = NRAS G12C (Homo sapiens, UniProt P01111+P62937, G12C); assay: as above; assay type: biochemical
[1] = read-out: KRAS G12C FRET data, IC50
[2] = read-out: KRAS G12D FRET data, IC50
[3] = read-out: KRAS G12S FRET data, IC50
[4] = KRAS G12V, read-out: KRAS G12V FRET data IC50
[5] = read-out: KRAS G13C FRET data, IC50
[6] = KRAS G13D, read-out: KRAS G13D FRET data IC50
[7] = KRAS WT, read-out: KRAS WT FRET data IC50
[8] = NRAS G12C, read-out: NRAS G12C FRET data IC50

Sequence of KRAS G12D (P01116 1-169 isoform P01116-2 G12D limits assumed): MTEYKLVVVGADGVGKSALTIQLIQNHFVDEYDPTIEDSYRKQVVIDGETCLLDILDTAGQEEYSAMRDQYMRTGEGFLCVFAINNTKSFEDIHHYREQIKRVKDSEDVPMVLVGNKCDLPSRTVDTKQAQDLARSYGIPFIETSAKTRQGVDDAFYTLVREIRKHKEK
Sequence of KRAS G12D (P62937 whole entry): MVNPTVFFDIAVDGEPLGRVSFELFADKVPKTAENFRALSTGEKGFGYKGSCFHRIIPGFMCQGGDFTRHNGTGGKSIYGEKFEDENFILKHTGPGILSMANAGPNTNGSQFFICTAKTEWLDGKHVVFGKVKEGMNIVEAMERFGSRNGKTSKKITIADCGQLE
Sequence of KRAS G12C (P01116 1-169 isoform P01116-2 G12C): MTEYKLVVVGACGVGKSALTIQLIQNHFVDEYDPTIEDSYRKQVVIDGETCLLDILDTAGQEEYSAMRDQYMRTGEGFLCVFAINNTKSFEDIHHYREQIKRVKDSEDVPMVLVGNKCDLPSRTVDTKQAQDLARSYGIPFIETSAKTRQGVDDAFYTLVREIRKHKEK
Sequence of KRAS G12C (P62937 whole entry): as the sequence (P62937 whole entry) above
Sequence of KRAS WT (P01116 1-169 isoform P01116-2 limits assumed): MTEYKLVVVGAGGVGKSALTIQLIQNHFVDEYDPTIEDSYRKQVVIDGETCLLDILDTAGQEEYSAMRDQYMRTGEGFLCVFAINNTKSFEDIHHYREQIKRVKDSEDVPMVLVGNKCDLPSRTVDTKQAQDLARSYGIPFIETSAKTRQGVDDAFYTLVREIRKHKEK
Sequence of KRAS WT (P62937 whole entry): as the sequence (P62937 whole entry) above
Sequence of KRAS G13C (P01116 1-169 isoform P01116-2 G13C): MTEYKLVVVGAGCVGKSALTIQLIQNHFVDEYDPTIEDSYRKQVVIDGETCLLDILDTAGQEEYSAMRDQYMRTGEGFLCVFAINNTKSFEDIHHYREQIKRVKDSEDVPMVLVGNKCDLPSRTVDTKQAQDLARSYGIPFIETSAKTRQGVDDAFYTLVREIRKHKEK
Sequence of KRAS G13C (P62937 whole entry): as the sequence (P62937 whole entry) above
Sequence of KRAS G12V (P01116 1-169 isoform P01116-2 G12V limits assumed): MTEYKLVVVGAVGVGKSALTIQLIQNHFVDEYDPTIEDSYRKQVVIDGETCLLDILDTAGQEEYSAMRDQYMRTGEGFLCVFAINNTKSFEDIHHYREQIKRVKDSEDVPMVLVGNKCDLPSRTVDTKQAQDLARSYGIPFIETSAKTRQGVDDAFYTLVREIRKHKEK
Sequence of KRAS G12V (P62937 whole entry): as the sequence (P62937 whole entry) above
Sequence of KRAS G13D (P01116 1-169 isoform P01116-2 G13D limits assumed): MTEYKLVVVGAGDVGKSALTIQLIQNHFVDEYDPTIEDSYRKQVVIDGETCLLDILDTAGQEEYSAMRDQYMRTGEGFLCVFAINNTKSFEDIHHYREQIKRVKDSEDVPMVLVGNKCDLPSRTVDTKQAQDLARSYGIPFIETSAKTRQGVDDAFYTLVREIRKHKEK
Sequence of KRAS G13D (P62937 whole entry): as the sequence (P62937 whole entry) above
Sequence of NRAS G12C (P01111 whole entry G12C): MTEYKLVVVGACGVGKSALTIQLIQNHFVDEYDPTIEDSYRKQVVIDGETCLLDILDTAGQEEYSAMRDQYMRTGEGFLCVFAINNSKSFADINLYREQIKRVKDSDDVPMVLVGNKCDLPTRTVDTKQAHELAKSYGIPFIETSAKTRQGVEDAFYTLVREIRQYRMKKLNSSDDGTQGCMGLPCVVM
Sequence of NRAS G12C (P62937 whole entry): as the sequence (P62937 whole entry) above
Sequence of KRAS G12S (P01116 1-169 isoform P01116-2 G12S limits assumed): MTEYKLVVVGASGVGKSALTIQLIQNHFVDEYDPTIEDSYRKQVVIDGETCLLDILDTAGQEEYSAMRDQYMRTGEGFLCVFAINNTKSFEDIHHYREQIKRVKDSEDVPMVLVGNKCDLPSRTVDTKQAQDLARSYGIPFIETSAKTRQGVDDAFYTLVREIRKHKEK
Sequence of KRAS G12S (P62937 whole entry): as the sequence (P62937 whole entry) above

Row | SMILES | IC50 (Capan-1 (K-Ras G12V)) [nM] | IC50 (NCI-H358 (K-Ras G12C)) [nM] | IC50 (KRAS G12C; [1]) [nM] | IC50 (KRAS G12D; [2]) [nM] | IC50 (KRAS G12S; [3]) [nM] | IC50 (KRAS G12V; [4]) [nM] | IC50 (KRAS G13C; [5]) [nM] | IC50 (KRAS G13D; [6]) [nM] | IC50 (KRAS WT; [7]) [nM] | IC50 (NRAS G12C; [8]) [nM] | IC50 (KRAS G12C; KRAS G12C FRET data, IC50) [nM] | IC50 (KRAS G12D; KRAS G12D FRET data, IC50) [nM] | IC50 (KRAS G12S; KRAS G12S FRET data, IC50) [nM] | IC50 (KRAS G12V; KRAS G12V FRET data IC50, KRAS G12V) [nM] | IC50 (KRAS G13C; KRAS G13C FRET data, IC50) [nM] | IC50 (KRAS G13D; KRAS G13D FRET data IC50, KRAS G13D) [nM] | IC50 (KRAS WT; KRAS WT FRET data IC50, KRAS WT) [nM] | IC50 (NRAS G12C; NRAS G12C FRET data IC50, NRAS G12C) [nM]
1 | CCn1c(-c2cccnc2[C@H](C)OC)c2c3cc(ccc31)-c1cc(O)cc(c1)C[C@H](NC(=O)[C@H](C(C)C)N(C)C(=O)C1CC13CC3)C(=O)N1CCC[C@H](N1)C(=O)OCC(C)(C)C2 (stereo partly drawn) [Example A156] | 10 to 100 | 10 to 100 | 10 to 100 | 100 to 1000 | 10 to 100 | 10 to 100 | 10 to 100 | 100 to 1000 | 10 to 100 | 10 to 100 | – | – | – | – | – | – | – | –
2 | CCN(C(=O)N(C)[C@H](C(=O)N[C@H]1Cc2nc(cs2)-c2ccc3c(c2)c(c(-c2cccnc2[C@H](C)OC)n3CC)CC(C)(C)COC(=O)[C@@H]2CCCN(N2)C1=O)C(C)C)C1CC1 [Example A352] | 100 to 1000 | 10 to 100 | 100 to 1000 | 1000 to 10000 | 100 to 1000 | 100 to 1000 | 100 to 1000 | 100 to 1000 | 100 to 1000 | 100 to 1000 | – | – | – | – | – | – | – | –
3 | CCn1c(-c2cccnc2[C@H](C)OC)c2c3cc(ccc31)-c1cc(O)cc(c1)C[C@H](NC(=O)[C@H](C(C)C)N(C)C(=O)C1CNC1)C(=O)N1CCC[C@H](N1)C(=O)OCC(C)(C)C2 [Example A125] | 1000 to 10000 | 1000 to 10000 | 10 to 100 | 10 to 100 | 10 to 100 | 100 to 1000 | 10 to 100 | 10 to 100 | 10 to 100 | 10 to 100 | – | – | – | – | – | – | – | –
4 | CCn1c(-c2cnccc2COC)c2c3cc(ccc31)-c1cc(O)cc(c1)C[C@H](NC(=O)[C@H](C(C)C)N(C)C(=O)OC1CN(C)C1)C(=O)N1CCC[C@H](N1)C(=O)OCC(C)(C)C2 [Example A101] | 1000 to 10000 | 1000 to 10000 | 100 to 1000 | 100 to 1000 | 100 to 1000 | 1000 to 10000 | 10 to 100 | 100 to 1000 | 100 to 1000 | 100 to 1000 | – | – | – | – | – | – | – | –
5 | CCn1c(-c2cccnc2[C@H](C)OC)c2c3cc(ccc31)-c1cc(O)cc(c1)C[C@H](NC(=O)[C@H](C(C)C)N(C)C(=O)C1(CN)CC1)C(=O)N1CCC[C@H](N1)C(=O)OCC(C)(C)C2 [Example A139] | 100 to 1000 | 100 to 1000 | – | – | 10 to 100 | 10 to 100 | – | – | – | 10 to 100 | – | – | – | – | – | – | – | –
6 | CCn1c(-c2cccnc2[C@H](C)OC)c2c3cc(ccc31)-c1cc(O)cc(c1)C[C@H](NC(=O)[C@H](C(C)C)N(C)C(=O)O[C@H]1CCOC1)C(=O)N1CCC[C@H](N1)C(=O)OCC(C)(C)C2 [Example A209] | 100 to 1000 | 100 to 1000 | 100 to 1000 | 100 to 1000 | 100 to 1000 | 100 to 1000 | 100 to 1000 | 100 to 1000 | 100 to 1000 | 100 to 1000 | – | – | – | – | – | – | – | –
7 | CCn1c(-c2cccnc2[C@H](C)OC)c2c3cc(ccc31)-c1cc(O)cc(c1)C[C@H](NC(=O)[C@H](C(C)C)N(C)C(=O)[C@H]1CCCN[C@@H]1C)C(=O)N1CCC[C@H](N1)C(=O)OCC(C)(C)C2 [Example A134] | > 10000 | 1000 to 10000 | 100 to 1000 | 10 to 100 | 100 to 1000 | 1000 to 10000 | 10 to 100 | 10 to 100 | 100 to 1000 | 100 to 1000 | – | – | – | – | – | – | – | –
8 | CCn1c(-c2cnccc2COC)c2c3cc(ccc31)-c1cc(O)cc(c1)C[C@H](NC(=O)[C@H](C(C)C)N(C)C(=O)CO)C(=O)N1CCC[C@H](N1)C(=O)OCC(C)(C)C2 [Example A43, (2S)—N-[(8S,14S)-22-ethyl-4-hydroxy-21-[4-(methoxymethyl)pyridin-3-yl]-18,18-dimethyl-9,15-dioxo-16-oxa-10,22,28-triazapentacyclo[18.5.2.1^2,6.1^10,14.0^23,27]nonacosa-1(26),2,4,6(29),20,23(27),24-heptaen-8-yl]-2-(2-hydroxy-N-methylacetamido)-3-methylbutanamide] | 1000 to 10000 | 1000 to 10000 | – | – | – | – | – | – | – | – | 100 to 1000 | 1000 to 10000 | 100 to 1000 | 100 to 1000 | 100 to 1000 | 100 to 1000 | 100 to 1000 | 100 to 1000
